Six molecules from US10231954B2, “Neurodegenerative therapies” (LYTIX BIOPHARMA AS, priority 2014, dated 2019) can be followed below.

Structures are written as SMILES.

Common to all, as to type: biochemical
One test concerns the target PAK5 (Homo sapiens, UniProt Q9P286). In words: Kinase profiling PAK5. Conditions: 100 micromolar inhibitor concentration, 100 is no change; for remaining activity at 100 µM: read-out: residual kinase activity, PAK5. The text has this:
(§1) Any value less that 25 is considered to be highly significant inhibition.

A further test addresses T1, NEK2a (Homo sapiens, UniProt P51955).
T1 sequence (P51955 1-445): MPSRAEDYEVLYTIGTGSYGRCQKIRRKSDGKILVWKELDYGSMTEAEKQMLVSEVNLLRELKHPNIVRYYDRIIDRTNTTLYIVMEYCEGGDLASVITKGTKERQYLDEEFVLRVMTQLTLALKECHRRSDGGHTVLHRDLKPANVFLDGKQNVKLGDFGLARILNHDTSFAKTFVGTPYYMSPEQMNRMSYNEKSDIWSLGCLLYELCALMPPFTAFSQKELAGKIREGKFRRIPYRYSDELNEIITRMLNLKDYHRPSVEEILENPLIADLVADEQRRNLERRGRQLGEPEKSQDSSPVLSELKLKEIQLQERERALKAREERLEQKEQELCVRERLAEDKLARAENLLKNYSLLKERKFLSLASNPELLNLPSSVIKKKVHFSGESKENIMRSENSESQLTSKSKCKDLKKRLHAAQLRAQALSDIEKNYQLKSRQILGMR
In words: Kinase profiling NEK2a. Conditions: 100 micromolar inhibitor concentration, 100 is no change; for remaining activity at 100 µM: read-out: residual kinase activity, NEK2a.
Description: as §1

A further test concerns the target CK1γ2 (Homo sapiens, UniProt P78368). In words: Kinase profiling CK1γ2. The settings on record: 100 micromolar inhibitor concentration, 100 is no change; for remaining activity at 100 µM: read-out: residual kinase activity, CK1γ2.
Description: as §1

Another test deals with AMPK. In words: Kinase profiling AMPK. Conditions: 100 micromolar inhibitor concentration; 100 is no change.
Description: as §1

For a further test, the target named is HIPK1 (Homo sapiens, UniProt Q86Z02). In words: Kinase profiling HIPK1. Conditions: 100 micromolar inhibitor concentration, 100 is no change; for remaining activity at 100 µM: read-out: residual kinase activity, HIPK1.
Description: as §1

Another test deals with TESK1 (Homo sapiens, UniProt Q15569). Put plainly: Kinase profiling TESK1. The settings on record: 100 micromolar inhibitor concentration, 100 is no change; for remaining activity at 100 µM: read-out: residual kinase activity, TESK1.
Description: as §1

The next test addresses T2, EPH-B1 (Homo sapiens, UniProt P54762).
T2 sequence (P54762 18-984): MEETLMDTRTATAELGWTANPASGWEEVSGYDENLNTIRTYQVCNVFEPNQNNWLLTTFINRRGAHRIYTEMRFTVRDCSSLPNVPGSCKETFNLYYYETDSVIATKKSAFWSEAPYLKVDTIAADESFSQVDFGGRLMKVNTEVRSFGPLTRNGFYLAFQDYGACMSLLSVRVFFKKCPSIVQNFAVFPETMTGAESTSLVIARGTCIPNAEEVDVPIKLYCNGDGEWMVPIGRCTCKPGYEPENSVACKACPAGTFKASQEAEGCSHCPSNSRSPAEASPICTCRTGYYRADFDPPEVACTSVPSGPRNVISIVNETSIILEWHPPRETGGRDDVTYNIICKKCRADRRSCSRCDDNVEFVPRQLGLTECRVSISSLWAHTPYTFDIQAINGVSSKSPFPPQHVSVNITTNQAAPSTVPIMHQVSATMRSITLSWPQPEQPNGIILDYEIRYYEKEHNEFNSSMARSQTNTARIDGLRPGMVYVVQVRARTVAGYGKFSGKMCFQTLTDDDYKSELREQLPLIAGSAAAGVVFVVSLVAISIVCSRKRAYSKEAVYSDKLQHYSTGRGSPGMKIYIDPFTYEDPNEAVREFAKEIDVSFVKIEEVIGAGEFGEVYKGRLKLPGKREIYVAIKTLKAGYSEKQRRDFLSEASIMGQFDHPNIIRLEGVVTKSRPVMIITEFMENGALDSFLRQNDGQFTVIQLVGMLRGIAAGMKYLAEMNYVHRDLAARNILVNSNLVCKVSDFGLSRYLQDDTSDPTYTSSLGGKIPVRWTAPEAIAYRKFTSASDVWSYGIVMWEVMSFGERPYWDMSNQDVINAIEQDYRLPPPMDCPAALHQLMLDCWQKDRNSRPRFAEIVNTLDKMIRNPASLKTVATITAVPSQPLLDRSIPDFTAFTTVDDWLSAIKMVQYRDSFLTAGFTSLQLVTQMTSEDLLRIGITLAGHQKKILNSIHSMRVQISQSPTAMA
In words: Kinase profiling EPH-B1. Conditions: 100 micromolar inhibitor concentration, 100 is no change; for remaining activity at 100 µM: read-out: residual kinase activity, EPH-B1.
Description: as §1

Another test concerns the target T3, GCK (Homo sapiens, UniProt Q12851).
T3 sequence (Q12851 1-820): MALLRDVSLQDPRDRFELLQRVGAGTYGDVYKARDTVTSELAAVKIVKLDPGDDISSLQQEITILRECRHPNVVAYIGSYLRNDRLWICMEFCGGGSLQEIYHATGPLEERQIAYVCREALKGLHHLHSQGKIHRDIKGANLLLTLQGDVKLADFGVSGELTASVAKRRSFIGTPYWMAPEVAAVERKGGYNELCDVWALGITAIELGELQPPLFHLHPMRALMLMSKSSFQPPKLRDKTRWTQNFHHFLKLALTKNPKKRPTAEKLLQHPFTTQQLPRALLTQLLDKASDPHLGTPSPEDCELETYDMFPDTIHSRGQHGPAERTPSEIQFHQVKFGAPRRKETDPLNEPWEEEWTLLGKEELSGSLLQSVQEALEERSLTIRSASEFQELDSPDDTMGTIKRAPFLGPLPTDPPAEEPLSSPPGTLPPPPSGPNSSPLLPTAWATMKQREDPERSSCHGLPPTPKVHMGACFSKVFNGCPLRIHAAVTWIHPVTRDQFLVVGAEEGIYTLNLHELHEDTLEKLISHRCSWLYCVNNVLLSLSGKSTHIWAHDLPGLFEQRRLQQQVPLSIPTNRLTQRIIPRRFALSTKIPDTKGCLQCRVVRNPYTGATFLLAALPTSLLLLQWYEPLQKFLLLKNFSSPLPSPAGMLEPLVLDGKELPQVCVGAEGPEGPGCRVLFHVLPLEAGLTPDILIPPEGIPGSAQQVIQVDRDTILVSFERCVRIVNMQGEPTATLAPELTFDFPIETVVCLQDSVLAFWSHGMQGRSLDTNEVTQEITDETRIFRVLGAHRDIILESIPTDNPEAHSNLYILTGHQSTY
In words: Kinase profiling GCK. Conditions: 100 micromolar inhibitor concentration, 100 is no change; for remaining activity at 100 µM: read-out: residual kinase activity, GCK.
Description: as §1

A further test has as its target TTBK2 (Homo sapiens, UniProt Q6IQ55). Put plainly: Kinase profiling TTBK2. The settings on record: 100 micromolar inhibitor concentration, 100 is no change; for remaining activity at 100 µM: read-out: residual kinase activity, TTBK2.
Description: as §1

In a further test the target is MLK1 (Homo sapiens, UniProt P80192). In words: Kinase profiling MLK1. Conditions: 100 micromolar inhibitor concentration, 100 is no change; for remaining activity at 100 µM: read-out: residual kinase activity, MLK1.
Description: as §1

A further test has as its system PHK. In words: Kinase profiling PHK. The settings on record: 100 micromolar inhibitor concentration; 100 is no change.
Description: as §1

MLK1, sequence (P80192 whole entry, species assumed): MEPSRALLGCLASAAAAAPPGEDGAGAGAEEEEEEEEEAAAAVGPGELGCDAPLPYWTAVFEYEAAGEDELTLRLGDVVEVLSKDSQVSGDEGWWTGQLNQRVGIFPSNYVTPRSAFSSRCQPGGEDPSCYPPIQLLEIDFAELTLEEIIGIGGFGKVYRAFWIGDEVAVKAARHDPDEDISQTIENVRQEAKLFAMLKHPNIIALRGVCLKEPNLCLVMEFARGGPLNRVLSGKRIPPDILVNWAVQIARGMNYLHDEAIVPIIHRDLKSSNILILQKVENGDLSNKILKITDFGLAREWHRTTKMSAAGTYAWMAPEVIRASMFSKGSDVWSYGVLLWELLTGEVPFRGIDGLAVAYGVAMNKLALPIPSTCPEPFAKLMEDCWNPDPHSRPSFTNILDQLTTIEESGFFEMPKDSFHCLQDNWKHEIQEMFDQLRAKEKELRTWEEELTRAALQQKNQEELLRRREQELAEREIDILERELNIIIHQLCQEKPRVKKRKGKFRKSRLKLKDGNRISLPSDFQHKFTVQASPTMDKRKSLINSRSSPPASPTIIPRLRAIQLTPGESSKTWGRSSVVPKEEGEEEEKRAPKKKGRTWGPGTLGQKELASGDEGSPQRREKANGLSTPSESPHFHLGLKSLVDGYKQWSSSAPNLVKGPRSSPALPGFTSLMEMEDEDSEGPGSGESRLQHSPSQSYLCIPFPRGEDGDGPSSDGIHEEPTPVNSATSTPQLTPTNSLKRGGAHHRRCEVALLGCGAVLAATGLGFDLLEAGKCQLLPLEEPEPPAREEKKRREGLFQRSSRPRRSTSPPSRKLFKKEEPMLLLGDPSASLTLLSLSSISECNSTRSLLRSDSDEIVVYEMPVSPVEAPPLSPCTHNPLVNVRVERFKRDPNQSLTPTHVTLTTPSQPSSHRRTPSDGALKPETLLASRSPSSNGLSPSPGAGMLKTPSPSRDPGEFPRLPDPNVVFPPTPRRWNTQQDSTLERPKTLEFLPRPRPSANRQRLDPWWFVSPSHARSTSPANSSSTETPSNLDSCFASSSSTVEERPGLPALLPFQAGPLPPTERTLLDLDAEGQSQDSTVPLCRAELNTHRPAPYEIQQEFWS
CK1γ2, sequence (P78368 whole entry): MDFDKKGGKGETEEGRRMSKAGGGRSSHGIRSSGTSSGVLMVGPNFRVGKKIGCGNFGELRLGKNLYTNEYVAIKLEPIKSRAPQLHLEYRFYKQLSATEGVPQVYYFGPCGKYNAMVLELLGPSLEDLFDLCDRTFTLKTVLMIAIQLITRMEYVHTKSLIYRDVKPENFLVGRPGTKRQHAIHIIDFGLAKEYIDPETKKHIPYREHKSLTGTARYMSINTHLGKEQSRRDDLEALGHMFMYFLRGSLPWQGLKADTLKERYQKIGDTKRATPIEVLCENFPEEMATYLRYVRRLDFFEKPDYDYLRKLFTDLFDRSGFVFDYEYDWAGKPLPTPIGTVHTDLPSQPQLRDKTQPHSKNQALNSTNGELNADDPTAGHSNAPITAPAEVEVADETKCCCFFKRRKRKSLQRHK
TTBK2, sequence (Q6IQ55 whole entry, species assumed): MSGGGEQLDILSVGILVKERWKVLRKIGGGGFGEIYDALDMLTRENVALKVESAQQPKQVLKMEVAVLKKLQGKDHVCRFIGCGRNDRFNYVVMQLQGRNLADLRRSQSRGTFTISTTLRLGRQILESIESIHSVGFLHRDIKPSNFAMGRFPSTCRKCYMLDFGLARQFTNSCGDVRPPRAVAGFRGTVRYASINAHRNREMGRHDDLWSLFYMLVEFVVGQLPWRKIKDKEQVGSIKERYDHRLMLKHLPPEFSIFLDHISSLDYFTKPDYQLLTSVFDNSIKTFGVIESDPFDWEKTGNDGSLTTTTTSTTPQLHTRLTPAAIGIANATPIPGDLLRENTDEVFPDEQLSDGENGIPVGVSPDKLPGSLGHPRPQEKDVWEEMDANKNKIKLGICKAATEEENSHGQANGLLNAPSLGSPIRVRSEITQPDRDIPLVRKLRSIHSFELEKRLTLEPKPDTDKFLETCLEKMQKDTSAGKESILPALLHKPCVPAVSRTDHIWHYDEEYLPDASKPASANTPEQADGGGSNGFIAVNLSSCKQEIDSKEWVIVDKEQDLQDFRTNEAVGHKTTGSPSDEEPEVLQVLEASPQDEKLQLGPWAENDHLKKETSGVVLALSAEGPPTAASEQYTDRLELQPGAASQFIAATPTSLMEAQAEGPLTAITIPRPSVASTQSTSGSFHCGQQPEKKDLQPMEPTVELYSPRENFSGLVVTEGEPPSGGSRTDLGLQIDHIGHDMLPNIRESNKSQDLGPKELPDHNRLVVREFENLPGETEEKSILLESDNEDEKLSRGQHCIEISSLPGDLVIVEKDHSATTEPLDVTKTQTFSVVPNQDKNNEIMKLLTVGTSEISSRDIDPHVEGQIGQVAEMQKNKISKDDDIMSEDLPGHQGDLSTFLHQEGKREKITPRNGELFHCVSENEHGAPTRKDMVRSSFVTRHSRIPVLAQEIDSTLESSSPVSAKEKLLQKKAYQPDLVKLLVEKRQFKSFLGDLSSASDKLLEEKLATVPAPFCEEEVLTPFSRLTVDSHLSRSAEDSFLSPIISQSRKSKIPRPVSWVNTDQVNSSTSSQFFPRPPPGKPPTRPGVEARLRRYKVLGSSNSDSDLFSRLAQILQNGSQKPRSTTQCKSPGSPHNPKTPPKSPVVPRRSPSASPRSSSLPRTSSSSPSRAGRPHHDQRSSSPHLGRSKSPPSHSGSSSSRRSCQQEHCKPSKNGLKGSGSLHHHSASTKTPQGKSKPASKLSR
HIPK1, sequence (Q86Z02 whole entry, species assumed): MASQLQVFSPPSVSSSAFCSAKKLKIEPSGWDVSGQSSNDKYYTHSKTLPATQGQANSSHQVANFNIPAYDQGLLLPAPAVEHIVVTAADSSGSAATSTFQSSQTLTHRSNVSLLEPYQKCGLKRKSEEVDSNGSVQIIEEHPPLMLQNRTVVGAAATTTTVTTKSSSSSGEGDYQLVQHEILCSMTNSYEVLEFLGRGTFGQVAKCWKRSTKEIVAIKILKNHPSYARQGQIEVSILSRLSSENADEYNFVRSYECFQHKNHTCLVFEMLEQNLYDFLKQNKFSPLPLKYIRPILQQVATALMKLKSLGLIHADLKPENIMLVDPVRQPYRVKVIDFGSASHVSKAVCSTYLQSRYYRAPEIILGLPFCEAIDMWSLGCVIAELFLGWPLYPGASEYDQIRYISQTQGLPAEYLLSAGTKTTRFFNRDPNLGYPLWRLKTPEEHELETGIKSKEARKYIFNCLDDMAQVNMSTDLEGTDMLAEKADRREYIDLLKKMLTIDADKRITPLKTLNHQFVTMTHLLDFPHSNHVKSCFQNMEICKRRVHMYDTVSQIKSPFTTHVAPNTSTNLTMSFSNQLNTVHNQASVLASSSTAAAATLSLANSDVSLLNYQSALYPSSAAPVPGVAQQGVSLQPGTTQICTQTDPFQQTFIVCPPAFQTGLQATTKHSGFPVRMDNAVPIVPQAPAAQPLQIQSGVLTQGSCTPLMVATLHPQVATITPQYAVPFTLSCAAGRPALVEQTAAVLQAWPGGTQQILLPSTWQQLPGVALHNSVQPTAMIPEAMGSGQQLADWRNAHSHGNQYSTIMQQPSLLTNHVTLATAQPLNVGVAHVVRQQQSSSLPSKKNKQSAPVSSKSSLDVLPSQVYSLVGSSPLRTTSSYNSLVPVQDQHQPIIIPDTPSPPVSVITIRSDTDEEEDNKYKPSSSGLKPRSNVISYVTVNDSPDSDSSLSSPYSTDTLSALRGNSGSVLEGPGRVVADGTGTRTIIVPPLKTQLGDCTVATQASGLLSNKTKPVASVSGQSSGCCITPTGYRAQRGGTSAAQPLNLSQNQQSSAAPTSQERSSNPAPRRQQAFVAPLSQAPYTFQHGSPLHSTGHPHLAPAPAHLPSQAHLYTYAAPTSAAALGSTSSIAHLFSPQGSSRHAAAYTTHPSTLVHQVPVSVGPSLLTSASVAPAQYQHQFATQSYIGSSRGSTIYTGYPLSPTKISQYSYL
TESK1, sequence (Q15569 whole entry, species assumed): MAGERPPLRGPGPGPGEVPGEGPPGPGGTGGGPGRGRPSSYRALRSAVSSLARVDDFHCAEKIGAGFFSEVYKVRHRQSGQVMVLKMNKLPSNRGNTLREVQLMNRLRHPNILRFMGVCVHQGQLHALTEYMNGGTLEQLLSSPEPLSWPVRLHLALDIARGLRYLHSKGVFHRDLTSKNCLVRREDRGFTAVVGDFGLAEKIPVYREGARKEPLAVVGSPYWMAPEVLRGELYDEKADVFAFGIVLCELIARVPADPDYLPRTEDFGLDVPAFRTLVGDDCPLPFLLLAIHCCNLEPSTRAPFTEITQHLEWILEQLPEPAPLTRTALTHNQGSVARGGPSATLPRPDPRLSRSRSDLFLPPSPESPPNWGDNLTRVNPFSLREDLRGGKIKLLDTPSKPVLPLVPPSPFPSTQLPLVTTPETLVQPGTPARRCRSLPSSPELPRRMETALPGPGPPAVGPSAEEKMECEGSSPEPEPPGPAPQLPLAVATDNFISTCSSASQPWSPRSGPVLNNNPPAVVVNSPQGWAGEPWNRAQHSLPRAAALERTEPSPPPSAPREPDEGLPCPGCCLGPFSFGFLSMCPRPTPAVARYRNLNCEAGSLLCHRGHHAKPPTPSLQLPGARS

For the molecule `O=C(Nc1nc2cc(O)ccc2s1)c1ccccn1` [Compound 03-13], the “residual kinase activity, PAK5” value on PAK5 came out at 82. Also, on NEK2a, the “residual kinase activity, NEK2a” value turned out to be 89. In addition, on CK1γ2, the “residual kinase activity, CK1γ2” value is 83. In addition, the “residual kinase activity, AMPK” value with AMPK stood at 80. Moreover, at HIPK1, the “residual kinase activity, HIPK1” value was 76. For the same molecule, the “residual kinase activity, TESK1” value on TESK1 was 93. The “residual kinase activity, EPH-B1” value at EPH-B1 worked out at 98. Also, the “residual kinase activity, GCK” value on GCK was 39. Moreover, on TTBK2, the “residual kinase activity, TTBK2” value is recorded as 71. Besides, the “residual kinase activity, MLK1” value at MLK1 is reported as 68. The “residual kinase activity, PHK” value with PHK was 28.

For the molecule `COc1ccc2sc(NC(C)=O)nc2c1` [Compound 03-21], the remaining activity at 100 µM on PAK5 is 110%; at NEK2a it was 93%; at CK1γ2, 6%; at HIPK1, 39%; at TESK1, 104%; on EPH-B1 it was 99%. The values for the remaining activity at 100 µM at GCK, at TTBK2 and on MLK1 were 3%, 84% and 84%, respectively. For the same molecule, the “residual kinase activity, AMPK” value in the test with AMPK came to 100. Also, the “residual kinase activity, PHK” value with PHK was 111.

Take `CC(=O)Nc1nc2ccccc2s1` [Compound 03-32]: the “residual kinase activity, PAK5” value at PAK5 came out at 74. On NEK2a, the “residual kinase activity, NEK2a” value was determined as 90. For the same molecule, the “residual kinase activity, CK1γ2” value at CK1γ2 is reported as 41. The “residual kinase activity, AMPK” value with AMPK stood at 107. In addition, the “residual kinase activity, HIPK1” value on HIPK1 turned out to be 62. Moreover, on TESK1, the “residual kinase activity, TESK1” value turned out to be 95. Further, at EPH-B1, the “residual kinase activity, EPH-B1” value is given as 97. Also, the “residual kinase activity, GCK” value at GCK worked out at 39. In addition, the “residual kinase activity, TTBK2” value on TTBK2 is listed as 85. At MLK1, the “residual kinase activity, MLK1” value worked out at 72. For the same molecule, in the test on PHK, the “residual kinase activity, PHK” value is 94.

Consider `O=C(Nc1nc2cc(O)ccc2s1)c1cccnc1` [Compound 03-33], for which the “residual kinase activity, PAK5” value at PAK5 is listed as 109. Also, the “residual kinase activity, NEK2a” value on NEK2a is on record as 99. At CK1γ2, the “residual kinase activity, CK1γ2” value is 25. In addition, the “residual kinase activity, AMPK” value with AMPK is 91. The “residual kinase activity, HIPK1” value on HIPK1 is 41. Further, the “residual kinase activity, TESK1” value at TESK1 worked out at 102. Besides, the “residual kinase activity, EPH-B1” value on EPH-B1 worked out at 104. The “residual kinase activity, GCK” value at GCK was 25. Besides, the “residual kinase activity, TTBK2” value at TTBK2 was found to be 102. Also, at MLK1, the “residual kinase activity, MLK1” value stood at 61. Also, in the test with PHK, the “residual kinase activity, PHK” value is reported as 74.

For `O=C(Nc1nc2ccc(O)cc2s1)c1ccccc1` [Compound 03-60], the “residual kinase activity, PAK5” value on PAK5 was determined as 70. In addition, the “residual kinase activity, NEK2a” value on NEK2a is on record as 64. For the same molecule, at CK1γ2, the “residual kinase activity, CK1γ2” value is 3. Besides, in the test on AMPK, the “residual kinase activity, AMPK” value is 30. Further, the “residual kinase activity, HIPK1” value on HIPK1 came out at 9. Also, the “residual kinase activity, TESK1” value at TESK1 came to 65. The “residual kinase activity, EPH-B1” value on EPH-B1 amounted to 98. The “residual kinase activity, GCK” value on GCK amounted to 4. In addition, the “residual kinase activity, TTBK2” value at TTBK2 is on record as 44. The “residual kinase activity, MLK1” value at MLK1 is 5. Also, the “residual kinase activity, PHK” value with PHK turned out to be 33.

For the molecule `CC(=O)Nc1nc2cc(C(F)(F)F)ccc2s1` [Compound 03-73], the remaining activity at 100 µM at PAK5 stood at 85%; at NEK2a, 94%; at CK1γ2, 79%; on HIPK1, 74%; at TESK1, 115%; at EPH-B1 it was 114%. Besides, the remaining activity at 100 µM at GCK stood at 36%; at TTBK2 it was 91%; on MLK1, 75%. In the test on AMPK, the “residual kinase activity, AMPK” value was determined as 75. The “residual kinase activity, PHK” value in the test on PHK was determined as 91.
